Test results reported in ChEMBL document CHEMBL3739313, “4-Methylcoumarins with cytotoxic activity against T24 and RT4 human bladder cancer cell lines” (2015).
The source made the active and inactive calls. No cut-off for these calls is given here.

Assays:
[1] = Cytotoxicity against human T24 cells assessed as reduction of cell viability at 10 uM after 48 hrs by MTT assay; format: functional, T-24
[2] = Cytotoxicity against human T24 cells assessed as reduction of cell viability at 25 uM after 48 hrs by MTT assay; format: functional, T-24
[3] = Cytotoxicity against human T24 cells assessed as reduction of cell viability at 50 uM after 48 hrs by MTT assay; format: functional, T-24
[4] = Cytotoxicity against human T24 cells assessed as reduction of cell viability at 100 uM after 48 hrs by MTT assay; format: functional, T-24
[5] = Cytotoxicity against human T24 cells assessed as reduction of cell viability at 50 uM after 24 hrs by MTT assay; format: functional, T-24
[6] = Cytotoxicity against human T24 cells assessed as reduction of cell count at 50 uM after 24 hrs; format: functional, T-24; parameters: scale not given: the % may be the effect or the level left
RT-4 = assay: Cytotoxicity against human RT4 cells assessed as reduction of cell viability at 5 to 100 uM after 24 hrs by MTT assay; format: functional, cell-based
[7] = Cell cycle arrest in human T24 cells assessed as accumulation at sub-G1 phase at 50 to 100 uM after 24 hrs by flow cytometry assay; format: functional, cell-based; conditions: T-24
T-24 = assay: Induction of apoptosis in human T24 cells at 50 uM after 24 hrs using annexin V/propidium iodide staining by flow cytometry assay; format: functional

## Cc1cc(=O)oc2c(O)c(O)cc(C(=O)O)c12
[1]
  Activity: 21.37%
[2]
  Activity: 62.26%
[3]
  Activity: 63.95%
[4]
  Activity: 65.64%
[5]
  Activity: 24.14%
[6]
  Activity: 44.52%
RT-4
  Activity: inactive
[7]
  Activity: Active
T-24
  Activity: 22.57%
